A short description of series [1]: Lipophilicity, log D of the compound. It counts as physicochemical. To be noted: octanol/water.
Series [2] in a line: Aqueous solubility of the compound. It counts as physicochemical.
Series [3] can be described thus: Permeability across cell membrane. To be noted: not told; read-out: permeability. It counts as ADME.
The nature of series [4]: Volume of distribution at steady state in rat at 1 mg, iv. It counts as ADME, organism-based. To be noted: in vivo, read-out: Vdss.
Series [5] in a line: Tmax in rat at 1 mg, po. The note with it: in vivo. The format is ADME, organism-based.
Series [6] in a line: Oral bioavailability in rat at 1 mg, po. It counts as ADME, organism-based. The note with it: in vivo.
Series [7] can be described thus: Volume of distribution at steady state in rat at 0.5 mg, iv. The format is ADME, organism-based. The note with it: in vivo, read-out: Vdss.

In brackets after ≈: the same amount, converted by molar mass.

For orientation: logD means lipophilicity at a set pH, counting ionised and neutral species. One may read the solubility as the dissolved amount per volume that the medium holds. As to `O=C(Nc1nc(CC(=O)N2CCN(CC(=O)N3CCCC3)CC2)cs1)c1ccc(Cl)s1`, the logD in series [1] was 2.1. Besides, the solubility in series [2] (aqueous, read-out: solubility) was above 640 µg/mL.
`CN1CCC(N2CCN(C(=O)Cn3ccc(NC(=O)c4ccc(Cl)s4)n3)CC2)CC1` returned a logD in series [1] of 0.1. Besides, in series [2] (aqueous, read-out: solubility), the solubility was above 601 µg/mL.
Consider `O=C(Cn1ccc(NC(=O)c2ccc(Cl)s2)n1)Nc1ccc(-n2ccccc2=O)cc1F`, for which the logD in series [1] is above 3. Further, the solubility in series [2] (aqueous, read-out: solubility) is below 1 µg/mL.
On to `CN1CCC(N2CCN(C(=O)Cc3csc(NC(=O)c4ccc(Cl)cc4)n3)CC2)CC1`, for which the logD in series [1] is 0.6. Further, the solubility in series [2] (aqueous, read-out: solubility) was above 620 µg/mL.
The corresponding values for `O=C(CN1CC[C@H](NC(=O)c2ccc(Cl)s2)C1)Nc1ccc(-n2ccccc2=O)cc1F` are 2.3 and 166 µg/mL (≈ 350 µM).
In series [1], `O=C(CN1CC[C@@H](NC(=O)c2ccc(Cl)s2)C1)Nc1ccc(-n2ccccc2=O)cc1F` showed a logD of 2.3. The solubility in series [2] (aqueous, read-out: solubility) was 197 µg/mL (≈ 415 µM).
A word on the Tmax: it is the time from dosing to the highest level. Usually bioavailability stands for dose-corrected exposure relative to a reference, in per cent. A lower bioavailability goes with poor availability. `O=C(CN1C[C@H](NC(=O)c2ccc(Cl)s2)[C@@H](OCCO)C1)Nc1ccc(-n2ccccc2=O)cc1F` gave a logD in series [1] of 1.6. For the same compound, the solubility in series [2] (buffer) is above 713 µg/mL. Moreover, the Papp in series [3] came to 0.4 ×10⁻⁶ cm/s. Besides, the Vd in series [4] came out at 1.1 L/kg. For the same compound, in series [5], the Tmax came to 15 min. This compound also registered a bioavailability in series [6] of 16%.
`O=C(Nc1nc(CC(=O)N2CCN(CC(=O)N3CCCC3)CC2)cs1)c1ccc(Cl)cc1` had a logD in series [1] of 2.2. Moreover, in series [2] (aqueous, read-out: solubility), the solubility was above 580 µg/mL.
For the compound `O=C(CN1C[C@H](NC(=O)c2ccc(Cl)s2)[C@@H](O)C1)Nc1ccc(-n2ccccc2=O)cc1F`, the solubility in series [2] (buffer) is 516 µg/mL (≈ 1050 µM). In series [3], the Papp is 1.5 ×10⁻⁶ cm/s. In addition, the Vd in series [7] was 1.1 L/kg. Further, the Tmax in series [5] amounted to 15 min. Also, in series [6], the bioavailability is 38%.
Consider `O=C(Cc1csc(NC(=O)c2ccc(Cl)cc2)n1)Nc1ccc(-n2ccccc2=O)cc1F`, for which the logD in series [1] is above 3. In addition, in series [2] (aqueous, read-out: solubility), the solubility was below 1 µg/mL.
The compound `CN1CCC(N2CCN(C(=O)Cc3csc(NC(=O)c4ccc(Cl)s4)n3)CC2)CC1` had a logD in series [1] of 1. In addition, the solubility in series [2] (aqueous, read-out: solubility) was above 620 µg/mL.
In turn, `CN1CCC(N2CCN(C(=O)Cn3cnc(NC(=O)c4ccc(Cl)s4)n3)CC2)CC1` came in with a logD in series [1] of -0.5. Also, the solubility in series [2] (aqueous, read-out: solubility) was above 600 µg/mL.
For `O=C(Cc1csc(NC(=O)c2ccc(Cl)s2)n1)Nc1ccc(-n2ccccc2=O)cc1F`, in that order: above 3 and below 1 µg/mL.
As for `O=C(Cn1nnc(NC(=O)c2ccc(Cl)s2)n1)Nc1ccc(-n2ccccc2=O)cc1F`, the log distribution coefficient (logD) in series [1] was found to be 2.4. In series [2] (aqueous, read-out: solubility), the solubility was below 1 µg/mL.
Turning to `O=C(Cn1cnc(NC(=O)c2ccc(Cl)s2)n1)Nc1ccc(-n2ccccc2=O)cc1F`, in series [1], the logD was 2.4. The solubility in series [2] (aqueous, read-out: solubility) stood at 1 µg/mL (≈ 2.11 µM). The Papp in series [3] was 0.9 ×10⁻⁶ cm/s. The Vd in series [7] was determined as 0.3 L/kg. Further, in series [5], the Tmax came to 66 min. In addition, in series [6], the bioavailability worked out at 10%.

The values are drawn from ChEMBL document CHEMBL1152891, “Design of novel aminopyrrolidine factor Xa inhibitors from a screening hit” (Eur J Med Chem, 2009).
